# What was measured:
# Test in all cases: relative viability (nuclei count vs DMSO), 5 days (fraction); higher = more cells survive
# [1] = compound: C/C(=N\NC(=S)N1CCC1)/C2=CC=CC=N2 + CC(=O)c1c(C)c2cnc(Nc3ccc(N4CCNCC4)cn3)nc2n(C2CCCC2)c1=O [Palbociclib] (partner 0.5 µM)
# Procedure, shortened: (§1)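 Medians of duplicate plates are given as relative viability. That measure is the nuclei count in treated wells divided by the count in vehicle wells. Counts were taken on 4× images of lung cancer cell lines in 1536-well plates, 5 days after pin-tool dosing the day after seeding with one drug alone or a fixed anchor-drug dose plus five library-drug doses (not always all listed) in √10 steps.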
# [2] = compound: C/C(=N\NC(=S)N1CCC1)/C2=CC=CC=N2 + CS(=O)(=O)N1CCN(Cc2cc3nc(-c4cccc5[nH]ncc45)nc(N4CCOCC4)c3s2)CC1 [Pictilisib] (partner 1 µM)
# Procedure, shortened: as §1
# [3] = compound: C/C(=N\NC(=S)N1CCC1)/C2=CC=CC=N2 + N=C(N)NC(=N)NCCc1ccccc1 [Phenformin] (partner 250 µM)
# Procedure, shortened: as §1
# [4] = compound: C/C(=N\NC(=S)N1CCC1)/C2=CC=CC=N2 + Nc1ncn([C@H]2C[C@H](O)[C@@H](CO)O2)c(=O)n1 [Decitabine] (partner 2 µM)
# Procedure, shortened: as §1
Cell Line,relative viability ([1]; first compound 0.05 µM),relative viability ([1]; first compound 0.1581 µM),relative viability ([1]; first compound 0.5 µM),relative viability ([1]; first compound 1.581 µM),relative viability ([1]; first compound 5 µM),relative viability ([2]; first compound 0.05 µM),relative viability ([2]; first compound 0.1581 µM),relative viability ([2]; first compound 0.5 µM),relative viability ([2]; first compound 1.581 µM),relative viability ([2]; first compound 5 µM),relative viability ([3]; first compound 0.05 µM),relative viability ([3]; first compound 0.1581 µM),relative viability ([3]; first compound 0.5 µM),relative viability ([3]; first compound 1.581 µM),relative viability ([3]; first compound 5 µM),relative viability ([4]; first compound 0.05 µM),relative viability ([4]; first compound 0.1581 µM),relative viability ([4]; first compound 0.5 µM),relative viability ([4]; first compound 1.581 µM),relative viability ([4]; first compound 5 µM)
LCLC-97TM1,0.0948,0.223,0.0874,0.0867,0.0722,0.101,0.141,0.0914,0.117,0.101,0.128,0.189,0.109,0.166,0.139,0.0771,0.284,0.0691,0.0739,0.0762
HCC-15,0.184,0.268,0.114,0.0996,0.091,0.0704,0.087,0.104,0.0822,0.0856,0.0651,0.134,0.144,0.0712,0.0989,0.0738,0.16,0.117,0.0902,0.0924
NCI-H647,0.0551,0.0636,0.0877,0.0726,0.0666,0.0857,0.0882,0.104,0.0844,0.15,0.0392,0.0555,0.125,0.0761,0.0797,0.0887,0.123,0.117,0.0803,0.0922
SW 1573,0.0872,0.139,0.131,0.0878,0.0783,0.102,0.0856,0.0985,0.104,0.0817,0.0755,0.0616,0.0965,0.0629,0.0599,0.0582,0.119,0.111,0.0723,0.0647
NCI-H1651,0.159,0.134,0.129,0.0856,0.0851,0.0849,0.0897,0.0884,0.0807,0.0572,0.176,0.169,0.185,0.0924,0.0954,0.127,0.114,0.103,0.0618,0.0864
NCI-H1792,0.426,0.398,0.363,0.272,0.259,0.193,0.149,0.122,0.0959,0.0891,0.122,0.096,0.108,0.063,0.0674,0.333,0.172,0.102,0.0665,0.0895
NCI-H2023,0.0715,0.0684,0.0648,0.0566,0.086,0.064,0.0997,0.084,0.0661,0.0904,0.102,0.106,0.0921,0.0767,0.0997,0.0753,0.0791,0.067,0.0569,0.0755
COR-L 105,0.353,0.358,0.349,0.316,0.318,0.318,0.346,0.325,0.279,0.254,0.198,0.299,0.29,0.196,0.214,0.31,0.413,0.327,0.306,0.313
NCI-H1734,0.14,0.132,0.169,0.131,0.129,0.15,0.151,0.149,0.115,0.139,0.147,0.206,0.194,0.12,0.132,0.136,0.152,0.132,0.123,0.102
NCI-H3122,0.0974,0.166,0.103,0.148,0.127,0.15,0.129,0.167,0.23,0.187,0.0982,0.0876,0.119,0.128,0.124,0.0981,0.269,0.086,0.127,0.136
HCC-78,0.355,0.368,0.273,0.329,0.323,0.184,0.176,0.119,0.163,0.153,0.279,0.367,0.314,0.247,0.213,0.453,0.413,0.407,0.244,0.22
NCI-H2085,0.275,0.303,0.261,0.279,0.273,0.27,0.301,0.353,0.326,0.296,0.198,0.297,0.243,0.178,0.239,0.255,0.324,0.358,0.309,0.376

# Source: the supplement of paper PMC10307832
